Data as given in ChEMBL document CHEMBL4219190, “Studies on synthesis of novel pyrido[2,3-d]pyrimidine derivatives, evaluation of their antimicrobial activity and molecular docking” (Bioorg Med Chem Lett, 2018).
Values after ≈ are worked out from the molar mass of the structure shown. Active and inactive are the calls of the source. The calls are words filed in the database; no cut-off is given here.

Key:
Type in all cases: functional
Staphylococcus aureus [1] = assay: Antibacterial activity against Staphylococcus aureus MTCC 96 after 24 hrs by well diffusion method
Candida albicans [2] = assay: Antifungal activity against Candida albicans MTCC 3017 after 24 hrs by well diffusion method; settings: MTCC 3017, 24 h
Candida albicans [3] = assay: Antifungal activity against Candida albicans MTCC 1637 after 24 hrs by well diffusion method
Candida albicans [4] = assay: Fungicidal activity against Candida albicans MTCC 3018 incubated for 24 hrs followed by transfer of microbial suspension to Sabouraud dextrose agar plates and measured after 24 hrs post transfer
[Candida] aaseri [5] = Fungicidal activity against Candida aaseri MTCC 1962 incubated for 24 hrs followed by transfer of microbial suspension to Sabouraud dextrose agar plates and measured after 24 hrs post transfer; settings: Yamadazyma aaseri, MTCC 1962, 24 h
Candida albicans [6] = assay: Antifungal activity against Candida albicans MTCC 183 after 24 hrs by well diffusion method; settings: MTCC 183, 24 h
Candida albicans [7] = assay: Fungicidal activity against Candida albicans MTCC 3958 incubated for 24 hrs followed by transfer of microbial suspension to Sabouraud dextrose agar plates and measured after 24 hrs post transfer
Pichia kudriavzevii [8] = assay: Antifungal activity against Candida krusei MTCC 3020 after 24 hrs by well diffusion method; settings: MTCC 3020, 24 h
Staphylococcus aureus [9] = assay: Antibacterial activity against Staphylococcus aureus MLS16 MTCC 2940 after 24 hrs by well diffusion method
Nakaseomyces glabratus [10] = assay: Antifungal activity against Candida glabrata MTCC 3019 after 24 hrs by well diffusion method; settings: MTCC 3019, 24 h
Candida albicans [11] = assay: Antifungal activity against Candida albicans MTCC 4748 after 24 hrs by well diffusion method
Escherichia coli = assay: Antibacterial activity against Escherichia coli MTCC 739 after 24 hrs by well diffusion method
Raoultella planticola = assay: Antibacterial activity against Klebsiella planticola MTCC 530 after 24 hrs by well diffusion method
Candida albicans [12] = assay: Fungicidal activity against Candida albicans MTCC 3017 incubated for 24 hrs followed by transfer of microbial suspension to Sabouraud dextrose agar plates and measured after 24 hrs post transfer; settings: MTCC 3017, 24 h
Candida albicans [13] = assay: Antifungal activity against Candida albicans MTCC 227 after 24 hrs by well diffusion method; settings: MTCC 227, 24 h
Candida albicans [14] = assay: Antifungal activity against Candida albicans MTCC 7315 after 24 hrs by well diffusion method; settings: MTCC 7315, 24 h
Candida albicans [15] = assay: Antifungal activity against Candida albicans MTCC 3958 after 24 hrs by well diffusion method
Candida parapsilosis [16] = assay: Antifungal activity against Candida parapsilosis MTCC 1744 after 24 hrs by well diffusion method
Bacillus subtilis = assay: Antibacterial activity against Bacillus subtilis MTCC 121 after 24 hrs by well diffusion method
Candida albicans [17] = assay: Fungicidal activity against Candida albicans MTCC 227 incubated for 24 hrs followed by transfer of microbial suspension to Sabouraud dextrose agar plates and measured after 24 hrs post transfer; settings: MTCC 227, 24 h
Pseudomonas aeruginosa = assay: Antibacterial activity against Pseudomonas aeruginosa MTCC 2453 after 24 hrs by well diffusion method
Candida albicans [18] = assay: Fungicidal activity against Candida albicans MTCC 7315 incubated for 24 hrs followed by transfer of microbial suspension to Sabouraud dextrose agar plates and measured after 24 hrs post transfer; settings: MTCC 7315, 24 h
Pichia sporocuriosa [19] = assay: Antifungal activity against Issatchenkia hanoiensis MTCC 4755 after 24 hrs by well diffusion method; settings: MTCC 4755, 24 h
Candida albicans [20] = assay: Fungicidal activity against Candida albicans MTCC 4748 incubated for 24 hrs followed by transfer of microbial suspension to Sabouraud dextrose agar plates and measured after 24 hrs post transfer
Candida parapsilosis [21] = assay: Fungicidal activity against Candida parapsilosis MTCC 1744 incubated for 24 hrs followed by transfer of microbial suspension to Sabouraud dextrose agar plates and measured after 24 hrs post transfer
[Candida] aaseri [22] = Antifungal activity against Candida aaseri MTCC 1962 after 24 hrs by well diffusion method; settings: Yamadazyma aaseri, MTCC 1962, 24 h
Candida albicans [23] = assay: Fungicidal activity against Candida albicans MTCC 1637 incubated for 24 hrs followed by transfer of microbial suspension to Sabouraud dextrose agar plates and measured after 24 hrs post transfer
Nakaseomyces glabratus [24] = assay: Fungicidal activity against Candida glabrata MTCC 3019 incubated for 24 hrs followed by transfer of microbial suspension to Sabouraud dextrose agar plates and measured after 24 hrs post transfer; settings: MTCC 3019, 24 h
Candida albicans [25] = assay: Antifungal activity against Candida albicans MTCC 3018 after 24 hrs by well diffusion method
Pichia kudriavzevii [26] = assay: Fungicidal activity against Candida krusei MTCC 3020 incubated for 24 hrs followed by transfer of microbial suspension to Sabouraud dextrose agar plates and measured after 24 hrs post transfer; settings: MTCC 3020, 24 h
Candida albicans [27] = assay: Fungicidal activity against Candida albicans MTCC 183 incubated for 24 hrs followed by transfer of microbial suspension to Sabouraud dextrose agar plates and measured after 24 hrs post transfer; settings: MTCC 183, 24 h
Micrococcus luteus = assay: Antibacterial activity against Micrococcus luteus MTCC 2470 after 24 hrs by well diffusion method
Candida albicans [28] = assay: Fungicidal activity against Candida albicans MTCC 854 incubated for 24 hrs followed by transfer of microbial suspension to Sabouraud dextrose agar plates and measured after 24 hrs post transfer; settings: MTCC 854, 24 h
Candida albicans [29] = assay: Antifungal activity against Candida albicans MTCC 854 after 24 hrs by well diffusion method; settings: MTCC 854, 24 h
Pichia sporocuriosa [30] = assay: Fungicidal activity against Issatchenkia hanoiensis MTCC 4755 incubated for 24 hrs followed by transfer of microbial suspension to Sabouraud dextrose agar plates and measured after 24 hrs post transfer; settings: MTCC 4755, 24 h

MIC (Staphylococcus aureus [1]): inactive
MIC (Candida albicans [2]): 15.6 µg/mL (≈ 35.7 µM)
MIC (Candida albicans [3]): inactive
MIC (Candida albicans [6]): 15.6 µg/mL (≈ 35.7 µM)
MIC (Pichia kudriavzevii [8]): 15.6 µg/mL (≈ 35.7 µM)
MIC (Staphylococcus aureus [9]): inactive
MIC (Nakaseomyces glabratus [10]): 7.8 µg/mL (≈ 17.9 µM)
MIC (Candida albicans [11]): inactive
MIC (Escherichia coli): inactive
MIC (Candida albicans [13]): 31.2 µg/mL (≈ 71.5 µM)
MIC (Candida albicans [14]): 15.6 µg/mL (≈ 35.7 µM)
MIC (Candida albicans [15]): inactive
MIC (Candida parapsilosis [16]): inactive
MIC (Bacillus subtilis): inactive
MIC (Pseudomonas aeruginosa): inactive
MIC (Pichia sporocuriosa [19]): 31.2 µg/mL (≈ 71.5 µM)
MIC ([Candida] aaseri [22]): 15.6 µg/mL (≈ 35.7 µM)
MIC (Candida albicans [25]): inactive
MIC (Micrococcus luteus): inactive
MIC (Candida albicans [29]): 31.2 µg/mL (≈ 71.5 µM)
Compound: CCCNC(=O)c1nc(-c2ccccc2)c2c(C(F)(F)F)cc(-c3ccccc3)nc2n1
MFC (Candida albicans [4]): inactive
MFC ([Candida] aaseri [5]): 15.6 µg/mL (≈ 35.7 µM)
MFC (Candida albicans [7]): inactive
MIC (Raoultella planticola): inactive
MFC (Candida albicans [12]): 15.6 µg/mL (≈ 35.7 µM)
MFC (Candida albicans [17]): 31.2 µg/mL (≈ 71.5 µM)
MFC (Candida albicans [18]): 31.2 µg/mL (≈ 71.5 µM)
MFC (Candida albicans [20]): inactive
MFC (Candida parapsilosis [21]): inactive
MFC (Candida albicans [23]): inactive
MFC (Nakaseomyces glabratus [24]): 15.6 µg/mL (≈ 35.7 µM)
MFC (Pichia kudriavzevii [26]): 31.2 µg/mL (≈ 71.5 µM)
MFC (Candida albicans [27]): 31.2 µg/mL (≈ 71.5 µM)
MFC (Candida albicans [28]): 62.5 µg/mL (≈ 143 µM)
MFC (Pichia sporocuriosa [30]): 62.5 µg/mL (≈ 143 µM)
